From ChEMBL document CHEMBL1139949, “Structure-activity relationship, kinetic mechanism, and selectivity for a new class of ubiquitin C-terminal hydrolase-L1 (UCH-L1) inhibitors” (Bioorg Med Chem Lett, 2007)
Active and inactive are the calls of the source. No cut-off for these calls is given here.

Assays:
[1] = target: T1, Ubiquitin carboxyl-terminal hydrolase isozyme L3 (Homo sapiens) (UniProt P15374); experiment: Inhibition of UCHL3 at 20 uM
T1 sequence (whole entry): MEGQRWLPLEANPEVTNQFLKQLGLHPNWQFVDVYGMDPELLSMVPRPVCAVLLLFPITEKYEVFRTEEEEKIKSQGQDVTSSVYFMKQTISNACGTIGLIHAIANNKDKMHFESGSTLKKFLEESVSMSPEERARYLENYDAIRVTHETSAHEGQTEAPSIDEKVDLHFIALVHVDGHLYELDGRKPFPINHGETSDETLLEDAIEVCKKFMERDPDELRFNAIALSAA

[2] = target: T2, Papain (Carica papaya) (UniProt P00784); experiment: Inhibition of papain at 40 uM
T2 sequence (whole entry): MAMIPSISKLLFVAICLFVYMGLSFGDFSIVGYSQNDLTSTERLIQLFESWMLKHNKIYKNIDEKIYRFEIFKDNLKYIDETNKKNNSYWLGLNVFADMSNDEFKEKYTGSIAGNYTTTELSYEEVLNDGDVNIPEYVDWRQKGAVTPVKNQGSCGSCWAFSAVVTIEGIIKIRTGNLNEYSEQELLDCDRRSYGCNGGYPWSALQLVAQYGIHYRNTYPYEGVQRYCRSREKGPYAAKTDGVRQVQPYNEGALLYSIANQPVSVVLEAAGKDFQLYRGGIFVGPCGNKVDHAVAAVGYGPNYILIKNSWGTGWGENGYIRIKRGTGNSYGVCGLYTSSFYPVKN

[3] = target: T3, Ubiquitin carboxyl-terminal hydrolase 5 (Homo sapiens) (UniProt P45974); experiment: Inhibition of isopeptidase T at 40 uM
T3 sequence (whole entry): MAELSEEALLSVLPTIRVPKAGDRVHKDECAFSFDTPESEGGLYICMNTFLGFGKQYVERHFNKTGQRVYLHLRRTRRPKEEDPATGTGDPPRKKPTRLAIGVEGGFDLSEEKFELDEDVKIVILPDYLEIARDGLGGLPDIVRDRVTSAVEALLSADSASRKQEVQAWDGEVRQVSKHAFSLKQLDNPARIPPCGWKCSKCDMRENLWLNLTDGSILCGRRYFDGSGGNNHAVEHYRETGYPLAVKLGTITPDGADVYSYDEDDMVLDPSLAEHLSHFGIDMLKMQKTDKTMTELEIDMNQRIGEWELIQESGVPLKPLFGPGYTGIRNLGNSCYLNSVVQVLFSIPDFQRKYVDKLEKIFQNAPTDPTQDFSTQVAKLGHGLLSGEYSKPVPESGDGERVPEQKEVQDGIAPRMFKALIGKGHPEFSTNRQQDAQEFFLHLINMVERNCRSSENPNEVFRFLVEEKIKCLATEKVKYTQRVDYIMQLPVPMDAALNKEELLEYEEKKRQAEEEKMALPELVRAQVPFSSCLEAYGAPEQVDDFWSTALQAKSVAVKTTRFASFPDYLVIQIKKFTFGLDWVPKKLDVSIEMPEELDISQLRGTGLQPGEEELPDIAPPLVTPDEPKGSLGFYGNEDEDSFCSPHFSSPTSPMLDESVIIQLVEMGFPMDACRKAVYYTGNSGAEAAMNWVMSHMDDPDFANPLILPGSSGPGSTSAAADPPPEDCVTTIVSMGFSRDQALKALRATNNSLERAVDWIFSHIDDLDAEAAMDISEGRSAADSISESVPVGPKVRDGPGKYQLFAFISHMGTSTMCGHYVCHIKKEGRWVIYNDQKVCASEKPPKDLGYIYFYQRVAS

[4] = target: T4, Protein-glutamine gamma-glutamyltransferase (Homo sapiens) (UniProt P21980); experiment: Inhibition of TGase 2 at 40 uM
T4 sequence (whole entry): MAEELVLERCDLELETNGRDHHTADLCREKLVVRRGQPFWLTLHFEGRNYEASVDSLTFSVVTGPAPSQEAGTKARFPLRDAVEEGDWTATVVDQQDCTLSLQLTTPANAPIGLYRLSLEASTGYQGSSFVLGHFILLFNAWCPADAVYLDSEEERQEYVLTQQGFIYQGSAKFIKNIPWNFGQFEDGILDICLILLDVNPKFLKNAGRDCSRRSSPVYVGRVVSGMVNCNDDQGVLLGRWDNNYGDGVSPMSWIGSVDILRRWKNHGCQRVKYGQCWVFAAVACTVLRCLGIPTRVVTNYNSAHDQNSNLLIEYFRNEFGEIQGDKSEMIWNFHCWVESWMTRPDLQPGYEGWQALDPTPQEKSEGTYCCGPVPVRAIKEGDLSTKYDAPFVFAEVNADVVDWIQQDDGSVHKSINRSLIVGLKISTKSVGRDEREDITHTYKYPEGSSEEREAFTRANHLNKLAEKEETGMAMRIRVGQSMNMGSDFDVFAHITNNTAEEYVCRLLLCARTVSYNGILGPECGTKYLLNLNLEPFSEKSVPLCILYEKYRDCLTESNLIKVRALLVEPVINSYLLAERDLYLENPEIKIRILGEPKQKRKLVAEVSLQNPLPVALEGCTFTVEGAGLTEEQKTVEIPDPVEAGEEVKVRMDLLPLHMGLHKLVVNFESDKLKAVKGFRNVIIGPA

[5] = target: T5, Caspase-3 (Homo sapiens) (UniProt P42574); experiment: Inhibition of caspase 3 at 40 uM
T5 sequence (whole entry): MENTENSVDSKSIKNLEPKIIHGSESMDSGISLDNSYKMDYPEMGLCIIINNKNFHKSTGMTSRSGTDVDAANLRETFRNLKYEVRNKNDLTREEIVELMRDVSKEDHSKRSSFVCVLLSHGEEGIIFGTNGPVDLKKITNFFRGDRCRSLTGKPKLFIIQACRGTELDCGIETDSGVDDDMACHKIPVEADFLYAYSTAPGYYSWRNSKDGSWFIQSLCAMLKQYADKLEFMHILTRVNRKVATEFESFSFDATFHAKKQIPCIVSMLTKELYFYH

[6] = test system: N2a; experiment: Cytotoxicity against serum-starved mouse N2A cells at 0.1 mM; format: cell-based; conditions: 100 µM

Row | inhibition [1] | Activity [2] | Activity [3] | Activity [1] | Activity [4] | Activity [5] | Structure (SMILES) | Activity [6]
1 | 30% | inactive | inactive |  |  |  | Cc1ccc(C(=O)c2sc3[nH]c(=O)c(C(=O)O)cc3c2N)cc1 | 
2 |  | inactive |  | inactive | inactive | inactive | Cl.Nc1c(C(=O)c2ccccc2)sc2[nH]c(=O)c(C(=O)O)cc12 | Non-toxic
3 |  | inactive |  |  |  |  | Nc1c(C(=O)c2ccc(Cl)cc2)sc2[nH]c(=O)c(C(=O)O)cc12 | 
